{"source": "patent US11103549B2", "about": "“Use of histone methyltransferase inhibitors and histone deacetylase inhibitors for therapy of Phelan-McDermid Syndrome” (Asddr, LLC, priority 2016, dated 2021)", "key": {"EHMT2/EHMT1": {"test_system": "EHMT2/EHMT1", "details": "cited from earlier work"}, "Shank3+/ΔC mice [1]": {"test_system": "Shank3+/ΔC mice", "assay": "Three-chamber social interaction assay in Shank3+/ΔC mice", "format": "in vivo", "details": "for improvement on social preference: i.p. once daily for 3 days"}, "Shank3+/ΔC mice [2]": {"test_system": "Shank3+/ΔC mice", "details": "5 mg/kg, i.p. 5 days, Kim et al., 2017; cited from earlier work"}, "[3]": {"details": "Liu et al., 2013; cited from earlier work"}, "Shank3+/ΔC mice [4]": {"test_system": "Shank3+/ΔC mice", "details": "mouse, in vivo"}, "WT mice": {"test_system": "WT mice", "assay": "Three-chamber social interaction assay in wild-type mice", "format": "in vivo", "details": "UNC0642 1 mg/kg, i.p., once daily for 3 days, saline control 62.0%±3.1%", "from_the_text": "To test the social preference behavior, juvenile male Shank3+/ΔC mice and age-matched wild-type (WT) mice were subject to the three-chamber social interaction assay, as previously described (Duffney et al., 2015). Briefly, the test is composed of three phases with various stimuli placed in each of two side chambers. Phase 1 contains two identical nonsocial stimuli (NS1 & NS1), phase 2 contains a nonsocial stimulus (NS1) and a social stimulus (Soc1), and phase 3 contains a known social stimulus (Soc1) and a novel social stimulus (Soc2). The preference index for one stimulus over the other stimulus in each phase was compared."}, "EHMT1/2": {"test_system": "EHMT1/2", "details": "Liu et al., 2013; cited from earlier work"}, "acetylated H3": {"test_system": "acetylated H3", "details": "Shank3+/ΔC mice, romidepsin 0.25 mg/kg, i.p., once daily for 3 days, cortical slices"}, "BTBR T+tf/J mice": {"test_system": "BTBR T+tf/J mice", "details": "before and after romidepsin treatment"}, "Shank3e4-9 mice": {"test_system": "Shank3e4-9 mice", "details": "before and after romidepsin treatment"}, "class I HDAC": {"test_system": "class I HDAC", "details": "Klimek et al., 2008; cited from earlier work"}}, "data": [{"compound": "COc1cc2c(cc1OCCCN1CCCC1)N=C(N)C21CCC1", "note": "[A-366]", "values": [{"measurement": "selectivity over other methyltransferases and other non-epigenetic targets", "setting": "EHMT2/EHMT1", "result": "> 100", "unit": "fold"}, {"measurement": "IC50", "setting": "EHMT2/EHMT1; peptide-competitive inhibitor, read-out: enzymatic IC50 EHMT2/EHMT1", "result": "~3", "unit": "nM"}]}, {"compound": "CC(/C=C/C(=O)NO)=C\\[C@@H](C)C(=O)c1ccc(N(C)C)cc1", "note": "[Trichostatin A]", "values": [{"measurement": "rescue of autism-like social deficits (social preference index)", "setting": "Shank3+/ΔC mice [1]; Shank3+/ΔC mice, Trichostatin A 0.5 mg/kg, i.p., once daily for 3 days", "result": "fail to persistently rescue autism-like social deficits"}]}, {"compound": "COc1cc2c(NC3CCN(C(C)C)CC3)nc(N3CCC(F)(F)CC3)nc2cc1OCCCN1CCCC1", "note": "[UNC0642, 2-(4,4-Difluoro-1-piperidinyl)-6-methoxy-N-[1-(1-methylethyl)-4-piperidinyl]-7-[3-(1-pyrrolidinyl)propoxy]-4-quinazolinamin]", "values": [{"measurement": "toxicity at higher dose and longer duration", "setting": "Shank3+/ΔC mice [2]", "result": "lack of toxicity"}, {"measurement": "brain penetration in vivo", "setting": "[3]", "result": "modest brain penetration"}, {"measurement": "blood chemistry and hematology: indicators for liver and kidney functions, lipid and protein metabolism", "setting": "Shank3+/ΔC mice [4]", "result": "within normal ranges"}, {"measurement": "duration of therapeutic effect on social preference post-injection", "setting": "Shank3+/ΔC mice [1]; Shank3+/ΔC mice, UNC0642 1 mg/kg, i.p., once daily for 3 days", "result": "~15", "unit": "days"}, {"measurement": "social preference index (Soc vs. NS, phase 2)", "setting": "Shank3+/ΔC mice [1]; Shank3+/ΔC mice, UNC0642 1 mg/kg, i.p., once daily for 3 days, saline control 22.5%±3.3%", "result": "48.9%±2.3%"}, {"measurement": "effect of repeated administration on social preference", "setting": "Shank3+/ΔC mice [1]; Shank3+/ΔC mice, UNC0642, second round of treatment", "result": "still effective with the repeated administration"}, {"measurement": "social preference index (Soc vs. NS, phase 2)", "setting": "WT mice", "result": "53.4%±5.1%"}, {"measurement": "selectivity for EHMT1/2 over other methyltransferases", "setting": "EHMT1/2", "result": "> 2,000 fold"}]}, {"compound": "O=C1CCc2ccc(OCCCCN3CCN(c4cccc(Cl)c4Cl)CC3)cc2N1", "note": "[aripiprazole]", "values": [{"measurement": "improvement on social preference", "setting": "Shank3+/ΔC mice [1]; Shank3+/ΔC mice, aripiprazole 1 mg/kg", "result": "No improvement"}]}, {"compound": "CNCCC(Oc1ccc(C(F)(F)F)cc1)c1ccccc1", "note": "(stereo not drawn) [fluoxetine]", "values": [{"measurement": "improvement of social preference", "setting": "Shank3+/ΔC mice [1]; Shank3+/ΔC mice, fluoxetine 10 mg/kg, i.p. once daily for 2 weeks", "result": "failed to induce any improvement"}]}, {"compound": "Cc1nc2n(c(=O)c1CCN1CCC(c3noc4cc(F)ccc34)CC1)CCCC2", "note": "[risperidone]", "values": [{"measurement": "improvement on social preference", "setting": "Shank3+/ΔC mice [1]; Shank3+/ΔC mice, risperidone 0.1 mg/kg", "result": "No improvement"}]}, {"compound": "CCCC(CCC)C(=O)O", "note": "[valproic acid]", "values": [{"measurement": "rescue of autism-like social deficits (social preference index)", "setting": "Shank3+/ΔC mice [1]; Shank3+/ΔC mice, valproic acid 100 mg/kg, i.p., once daily for 3 days", "result": "fail to persistently rescue autism-like social deficits"}]}, {"compound": "Romidepsin", "values": [{"measurement": "level of acetylated H3", "setting": "acetylated H3", "result": "significantly elevated the level of acetylated H3"}, {"measurement": "rescue of autism-like social deficits (social preference index)", "setting": "BTBR T+tf/J mice", "result": "rescues autism-like social deficits"}, {"measurement": "rescue of autism-like social deficits (social preference index)", "setting": "Shank3e4-9 mice", "result": "rescues autism-like social deficits in multiple mouse models of autism"}, {"measurement": "duration of effect on social preference post-injection", "setting": "Shank3+/ΔC mice [1]; mouse, in vivo", "result": 21, "unit": "days"}, {"measurement": "preference for social stimulus over non-social object", "setting": "Shank3+/ΔC mice [1]; mouse, in vivo", "result": "significantly elevated the preference for the social stimulus"}, {"measurement": "potency as class I-specific HDAC inhibitor", "setting": "class I HDAC", "result": "nanomolar potency"}]}]}
